What was measured:
Format in all cases: cell-based
M1 muscarinic receptor = target: T1, M1 muscarinic receptor (Homo sapiens, UniProt P11229); test: Functional mobilization of intracellular calcium (FLIPR), M1-CHO cells; settings: for M1 Activity: M1-CHO cells, calcium mobilization (FLIPR)
T1 construct: expressed in transfected cells; host or cells: CHO (M1-CHO)
T1 sequence (P11229 1-460): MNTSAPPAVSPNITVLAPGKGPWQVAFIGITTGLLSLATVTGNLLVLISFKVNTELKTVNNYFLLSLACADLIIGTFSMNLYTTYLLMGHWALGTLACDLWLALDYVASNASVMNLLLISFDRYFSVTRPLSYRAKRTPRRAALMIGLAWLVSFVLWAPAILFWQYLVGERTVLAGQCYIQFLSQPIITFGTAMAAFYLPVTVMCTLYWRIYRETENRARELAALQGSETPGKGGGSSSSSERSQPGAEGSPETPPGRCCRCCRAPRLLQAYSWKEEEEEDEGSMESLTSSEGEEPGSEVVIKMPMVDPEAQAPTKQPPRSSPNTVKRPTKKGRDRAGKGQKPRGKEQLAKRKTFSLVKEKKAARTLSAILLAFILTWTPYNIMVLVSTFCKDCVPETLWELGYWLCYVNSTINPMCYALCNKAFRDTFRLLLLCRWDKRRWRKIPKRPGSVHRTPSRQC
Summary of the method: (§1)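 FLIPR fluorescence (ex 488, em 540 nm) recorded 60 sec after compound addition to dye-loaded CHO cells. Agonist mode: compound alone. Antagonist mode: 15 min compound pre-incubation, then carbachol at EC80, or co-application. Efficacy expressed as % of maximal carbachol response.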

M2 muscarinic receptor = target: T2, M2 muscarinic receptor (Homo sapiens, UniProt P08172); test: Functional mobilization of intracellular calcium (FLIPR), M2-CHO cells; settings: for M2 Activity: M2-CHO cells, calcium mobilization (FLIPR)
T2 construct: expressed in transfected cells; host or cells: CHO (M2-CHO)
T2 sequence (P08172 1-466): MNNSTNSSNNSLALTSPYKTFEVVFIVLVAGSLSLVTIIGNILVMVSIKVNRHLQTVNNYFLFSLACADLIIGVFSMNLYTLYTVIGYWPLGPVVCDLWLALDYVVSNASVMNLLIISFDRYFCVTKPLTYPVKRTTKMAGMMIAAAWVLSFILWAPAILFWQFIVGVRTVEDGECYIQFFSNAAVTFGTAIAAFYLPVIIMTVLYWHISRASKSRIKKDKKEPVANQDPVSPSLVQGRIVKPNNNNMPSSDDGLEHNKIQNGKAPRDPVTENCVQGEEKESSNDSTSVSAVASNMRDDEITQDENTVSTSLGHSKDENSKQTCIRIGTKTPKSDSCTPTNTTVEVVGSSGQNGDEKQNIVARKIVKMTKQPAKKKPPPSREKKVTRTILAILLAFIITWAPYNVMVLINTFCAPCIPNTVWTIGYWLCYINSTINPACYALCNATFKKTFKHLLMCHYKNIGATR
Summary of the method: as §1

M3 muscarinic receptor = target: T3, M3 muscarinic receptor (Homo sapiens, UniProt P20309); test: Functional mobilization of intracellular calcium (FLIPR), M3-CHO cells; settings: for M3 Activity: M3-CHO cells, calcium mobilization (FLIPR)
T3 construct: expressed in transfected cells; host or cells: CHO (M3-CHO)
T3 sequence (P20309 whole entry): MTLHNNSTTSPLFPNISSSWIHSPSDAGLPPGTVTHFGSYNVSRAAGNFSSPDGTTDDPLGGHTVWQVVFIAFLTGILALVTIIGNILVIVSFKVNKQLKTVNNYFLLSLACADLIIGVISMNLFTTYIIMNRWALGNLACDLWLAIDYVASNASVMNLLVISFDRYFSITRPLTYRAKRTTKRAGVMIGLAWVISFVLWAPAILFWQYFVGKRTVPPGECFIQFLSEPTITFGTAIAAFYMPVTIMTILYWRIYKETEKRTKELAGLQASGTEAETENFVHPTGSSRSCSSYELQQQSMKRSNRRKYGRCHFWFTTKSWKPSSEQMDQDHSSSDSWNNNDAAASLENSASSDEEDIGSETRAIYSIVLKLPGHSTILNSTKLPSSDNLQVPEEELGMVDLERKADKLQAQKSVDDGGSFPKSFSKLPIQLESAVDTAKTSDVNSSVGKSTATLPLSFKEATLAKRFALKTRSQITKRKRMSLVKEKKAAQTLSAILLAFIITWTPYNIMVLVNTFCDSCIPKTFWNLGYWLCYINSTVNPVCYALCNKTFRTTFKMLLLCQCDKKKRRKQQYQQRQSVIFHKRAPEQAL
Summary of the method: as §1

M4 muscarinic receptor = target: T4, M4 muscarinic receptor (Homo sapiens, UniProt P08173); test: Functional mobilization of intracellular calcium (FLIPR), M4-CHO cells; settings: for M4 Activity: M4-CHO cells, calcium mobilization (FLIPR)
T4 construct: expressed in transfected cells; host or cells: CHO (M4-CHO)
T4 sequence (P08173 1-479): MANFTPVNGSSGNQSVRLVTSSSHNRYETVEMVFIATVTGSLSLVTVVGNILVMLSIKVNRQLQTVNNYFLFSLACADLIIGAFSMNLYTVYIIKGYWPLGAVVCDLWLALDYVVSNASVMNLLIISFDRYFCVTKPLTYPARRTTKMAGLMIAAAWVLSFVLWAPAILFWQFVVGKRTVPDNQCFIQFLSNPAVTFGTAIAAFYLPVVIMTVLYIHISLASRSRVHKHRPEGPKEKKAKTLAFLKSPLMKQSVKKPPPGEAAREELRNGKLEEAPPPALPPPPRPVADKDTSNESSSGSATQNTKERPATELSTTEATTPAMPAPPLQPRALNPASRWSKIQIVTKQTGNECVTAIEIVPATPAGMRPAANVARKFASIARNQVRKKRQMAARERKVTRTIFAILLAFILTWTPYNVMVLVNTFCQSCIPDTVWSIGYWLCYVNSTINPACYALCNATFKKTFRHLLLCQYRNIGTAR
Summary of the method: as §1

[1] = 100% efficacy = maximum response obtained with the Carbachol control
[2] = 100% efficacy is the maximum response obtained with the Carbachol control

| Emax (M1 muscarinic receptor; [1]) | Emax (M2 muscarinic receptor; [1]) | Emax (M3 muscarinic receptor; [1]) | Emax (M4 muscarinic receptor; [1]) | Emax (M1 muscarinic receptor; [2]) | Emax (M2 muscarinic receptor; [2]) | Emax (M3 muscarinic receptor; [2]) | Emax (M4 muscarinic receptor; [2]) | SMILES | M1 Activity (M1 muscarinic receptor) | M2 Activity (M2 muscarinic receptor) | M3 Activity (M3 muscarinic receptor) | M4 Activity (M4 muscarinic receptor) |
| --- | --- | --- | --- | --- | --- | --- | --- | --- | --- | --- | --- | --- |
| 25 to 100% | 25 to 100% | < 25% | 25 to 100% | – | – | – | – | COc1ccc(F)cc1C1CCN(C2CCCCCC2)CC1 [Compound 176] | +++ (activity was measured to be less than 1.0 μM) | ++ (activity was measured to be from 1.0 μM to 5.0 μM) | + (activity was measured to be greater than 5.0 μM) | +++ (activity was measured to be less than 1.0 μM) |
| – | – | – | – | < 25% | < 25% | < 25% | 25 to 100% | COc1ccccc1C1CCN(C2CCCC(O)CCC2)CC1 (stereo not shown) [Compound 374] | + (activity was measured to be greater than 5.0 μM) | + (activity was measured to be greater than 5.0 μM) | + (activity was measured to be greater than 5.0 μM) | ++ (activity was measured to be from 1.0 μM to 5.0 μM) |
| < 25% | < 25% | < 25% | < 25% | – | – | – | – | CCN(CC)C(=O)c1ccc(-c2ccc(OC)c(C3CCN([C@H]4C[C@H]5CC[C@H]4C5)CC3)c2)cc1 [Compound 98] | + (activity was measured to be greater than 5.0 μM) | + (activity was measured to be greater than 5.0 μM) | + (activity was measured to be greater than 5.0 μM) | ++ (activity was measured to be from 1.0 μM to 5.0 μM) |
| 25 to 100% | < 25% | < 25% | 25 to 100% | – | – | – | – | Cc1ccccc1C1CCN(C2CCOCC2)CC1 [Compound 281] | + (activity was measured to be greater than 5.0 μM) | + (activity was measured to be greater than 5.0 μM) | + (activity was measured to be greater than 5.0 μM) | +++ (activity was measured to be less than 1.0 μM) |
| 25 to 100% | < 25% | < 25% | 25 to 100% | – | – | – | – | COc1ccc(-c2ccc(C(F)(F)F)cc2)cc1C1CCN([C@H]2C[C@H]3CC[C@H]2C3)CC1 [Compound 120] | + (activity was measured to be greater than 5.0 μM) | + (activity was measured to be greater than 5.0 μM) | + (activity was measured to be greater than 5.0 μM) | + (activity was measured to be greater than 5.0 μM) |
| < 25% | < 25% | < 25% | < 25% | – | – | – | – | COCCNC(=O)c1ccc(-c2ccc(OC)c(C3CCN([C@H]4C[C@H]5CC[C@H]4C5)CC3)c2)cc1 [Compound 87] | + (activity was measured to be greater than 5.0 μM) | + (activity was measured to be greater than 5.0 μM) | + (activity was measured to be greater than 5.0 μM) | + (activity was measured to be greater than 5.0 μM) |

More lines, now with the values behind:

| SMILES | Emax (M1 muscarinic receptor; [1]) | Emax (M2 muscarinic receptor; [1]) | Emax (M3 muscarinic receptor; [1]) | Emax (M4 muscarinic receptor; [1]) | Emax (M1 muscarinic receptor; [2]) | Emax (M2 muscarinic receptor; [2]) | Emax (M3 muscarinic receptor; [2]) | Emax (M4 muscarinic receptor; [2]) | M1 Activity (M1 muscarinic receptor) | M2 Activity (M2 muscarinic receptor) | M3 Activity (M3 muscarinic receptor) | M4 Activity (M4 muscarinic receptor) |
| --- | --- | --- | --- | --- | --- | --- | --- | --- | --- | --- | --- | --- |
| CCOC(=O)N1C2CCC1CC(N1CCC(c3ccccc3OC(F)(F)F)CC1)C2 (stereo not shown) [Compound 355] | 25 to 100% | < 25% | < 25% | 25 to 100% | – | – | – | – | +++ (activity was measured to be less than 1.0 μM) | + (activity was measured to be greater than 5.0 μM) | + (activity was measured to be greater than 5.0 μM) | +++ (activity was measured to be less than 1.0 μM) |
| COc1ccc(-c2ccncc2)cc1C1CCN([C@@H]2C[C@@H]3CC[C@H]2C3)CC1 [Compound 124, 4-(3-(1-((1S,2R,4R)-bicyclo[2.2.1]heptan-2-yl)piperidin-4-yl)-4-methoxyphenyl) pyridine] | < 25% | < 25% | < 25% | < 25% | – | – | – | – | + (activity was measured to be greater than 5.0 μM) | + (activity was measured to be greater than 5.0 μM) | + (activity was measured to be greater than 5.0 μM) | + (activity was measured to be greater than 5.0 μM) |
| COc1ccc(-c2ccc(OC)c(C3CCN([C@@H]4C[C@H]5CC[C@H]4C5)CC3)c2)cc1 [Compound 393] | – | – | – | – | < 25% | < 25% | < 25% | 25 to 100% | + (activity was measured to be greater than 5.0 μM) | + (activity was measured to be greater than 5.0 μM) | + (activity was measured to be greater than 5.0 μM) | + (activity was measured to be greater than 5.0 μM) |
| COc1cc(F)c(F)cc1C1CCN([C@H]2C[C@H]3CC[C@H]2C3)CC1 [Compound 227] | 25 to 100% | < 25% | < 25% | 25 to 100% | – | – | – | – | + (activity was measured to be greater than 5.0 μM) | + (activity was measured to be greater than 5.0 μM) | + (activity was measured to be greater than 5.0 μM) | ++ (activity was measured to be from 1.0 μM to 5.0 μM) |
| COc1ccc(Cl)c(C2CCN(C3C[C@H]4CC[C@H]3C4)CC2)c1 (stereo partly shown) [Compound 174] | < 25% | < 25% | < 25% | < 25% | – | – | – | – | + (activity was measured to be greater than 5.0 μM) | + (activity was measured to be greater than 5.0 μM) | + (activity was measured to be greater than 5.0 μM) | + (activity was measured to be greater than 5.0 μM) |
| COc1ccc(-c2ccc(C(C)(C)C#N)cc2)cc1C1CCN(C2CCCCC2)CC1 [Compound 105] | 25 to 100% | 25 to 100% | < 25% | 25 to 100% | – | – | – | – | ++ (activity was measured to be from 1.0 μM to 5.0 μM) | + (activity was measured to be greater than 5.0 μM) | + (activity was measured to be greater than 5.0 μM) | + (activity was measured to be greater than 5.0 μM) |
| COc1ccc(F)cc1C1CCN(CC2CC3CCC2CC3)CC1 (stereo not shown) [Compound 104] | < 25% | < 25% | < 25% | 25 to 100% | – | – | – | – | + (activity was measured to be greater than 5.0 μM) | + (activity was measured to be greater than 5.0 μM) | + (activity was measured to be greater than 5.0 μM) | ++ (activity was measured to be from 1.0 μM to 5.0 μM) |
| CCS(=O)(=O)c1ccc(-c2ccc(OC)c(C3CCN([C@H]4C[C@H]5CC[C@H]4C5)CC3)c2)cc1 [Compound 258] | 25 to 100% | < 25% | < 25% | 25 to 100% | – | – | – | – | + (activity was measured to be greater than 5.0 μM) | + (activity was measured to be greater than 5.0 μM) | + (activity was measured to be greater than 5.0 μM) | ++ (activity was measured to be from 1.0 μM to 5.0 μM) |

From patent publication US7880007B2, “Bicyclic substituted phenyl piperidine modulators of muscarinic receptors” (Vertex Pharmaceuticals Incorporated, priority 2004, dated 2011)
